{
  "source": "patent US8808715B1",
  "about": "“Methods and compositions for modulating keratinocyte function” (Georgia Regents Research Institute, Inc, priority 2004, dated 2014)",
  "key": {"[1]": {"test_system": "primary epidermal keratinocytes", "assay": "Radiolabeled phosphatidylglycerol formation in intact keratinocytes", "type": "cell-based, mouse", "protocol": "Primary epidermal keratinocytes were prepared from 1-3-day old neonatal ICR mice after trypsin flotation of the skin and mechanical separation of the epidermis from the dermis. The epidermal cells were released by scraping, collected by centrifugation and plated in 6-well dishes in a medium consisting of MEM containing 25 μM calcium, 2% dialyzed fetal bovine serum, 2 mM glutamine, 5 ng/mL EGF, ITS (6.25 μg/mL insulin+6.25 μg/mL transferrin+6.25 ng/mL selenious acid+5.35 μg/mL linoleic acid+1.25% bovine serum albumin), 100 U/mL penicillin, 100 μg/mL streptomycin and 0.25 μg/mL fungizone. After an overnight incubation, the cells were refed with serum-free keratinocyte medium (SFKM), in which 2% dialyzed fetal bovine serum was replaced with 90 μg/mL bovine pituitary extract. Cells were refed with fresh medium every 1-3 days.\nFor the PLD assay cultured primary keratinocytes were labeled for 20-24 hours with 2.5 μCi/ml [^3H] oleic acid. The cells were then exposed to vehicle or 100 nM PMA in the presence of 0.5% ethanol for 30 minutes. To measure the formation of radiolabeled phosphatidylglycerol, cells were treated for 24 hours with SFKM containing vehicle, 250 nM 1,25-dihydroxyvitamin D3 or 125 μM calcium and then labeled for an additional 30 minutes with 1-2.5 μCi/mL [^3H] or 0.4-0.5 μCi/mL [^14C]glycerol. For experiments investigating the extracellular calcium dependence of PG formation, cells were incubated for 24 hours in SFKM containing various calcium concentrations prior to the addition of 5 μCi/mL [^3H]glycerol for 30 minutes. In some cases, cells were stimulated with 25 μM calcium (control)—or 125 μM calcium-containing SFKM for 24 hours prior to the addition of [^14C]glycerol in the presence and absence of 1% ethanol. To measure phosphatidylglycerol formation in response to PMA, unlabeled cells were stimulated with 100 nM PMA in the presence of radiolabeled glycerol, as above. Reactions were terminated and the radiolabeled phosphatidylalcohol extracted, separated by thin-layer chromatography and quantified as described by Bollag (1998), referenced above."}, "involucrin": {"test_system": "involucrin", "assay": "Involucrin protein levels by western analysis", "type": "cell-based, mouse", "conditions": "24 hours; PG liposomes in 25 uM Ca2+ medium, or 125 uM Ca2+ alone; normalized to actin", "protocol": "FIGS. 15A-B illustrate that glycerol, but not xylitol or sorbitol, inhibits DNA synthesis and enhances the inhibitory effect of an elevated extracellular Ca^2+ concentration. (A) Near-confluent keratinocytes were incubated for 24 hours with 0.02 or 0.1% glycerol and DNA synthesis measured as the incorporation of [^3H] thymidine incorporation into DNA. (B) Near-confluent keratinocytes were incubated for 24 hours with the indicated concentrations of glycerol (G, squares) or equivalent concentrations of xylitol (X, circles) in SFKM containing 25 μM (control; open symbols) or 125 μM Ca^2+ (Ca^2+; closed symbols). […] [^3H]Thymidine incorporation into DNA was then determined. […] Luciferase activity was then measured using a Dual Luciferase kit as directed by the manufacturer. […] The blots were quantified using the Kodak molecular imaging software. […]\nPG was also examined for its ability to stimulate a marker of keratinocyte differentiation. Keratinocytes were treated with or without PG liposomes in 25 uM Ca^2+ (control) or 125 uM Ca^2+-containing medium for 24 hours and cell lysates were analyzed for involucrin protein levels (normalized to actin as a loading control) (FIG. 15E)."}},
  "data": [
    {"smiles": "[Ca+2]", "note": "[calcium]", "values": [
      {"measurement": "radiolabeled PG formation relative to control cells", "setting": "[1]; 24 hours pretreatment (250 nM 1,25-dihydroxyvitamin D3 or 125 μM calcium), then [3H]glycerol 30 minutes", "result": "induced an increase in the subsequent production of PG"},
      {"measurement": "calcium concentration giving maximal stimulation of radiolabeled PG formation", "setting": "[1]; range 25 μM (control) to 1 mM, 24 hours, biphasic dose dependence", "result": 125, "unit": "µM"},
      {"measurement": "involucrin protein levels, each agent alone", "setting": "involucrin", "result": "not significant effect"}
    ]}
  ]
}
